Measured values published in patent publication US9995734B2, “Human T cell line assay for evaluating the immunologic identity of glatiramer acetate preparations” (Mylan Inc., priority 2013, dated 2018).

System: Donor 1 COP T-Cell Lines
Test: IFN-γ ELISA, Donor 1 COP T-cell lines
Format: cell-based, human
Settings: for IFN-γ (ELISA), mean: 10 μg/mL, autologous B-LCL; for IFN-γ production in response to GA: 222-2D8, 222-2E1, 222-2B11, 222-2C3, 222-2B8, 222-2G12, 222-2F12
Experimental: Culture medium was removed from cultures prepared as for proliferation assay and utilized to measure cytokine production. In most cases culture medium was collected 18-24 hours after mixing T-cells, APC, and stimulating antigen. Cytokine production was measured by ELISA or bead assay. For measuring cytokine production, 100-150 μL culture medium (100 μL if culture was to be continued, otherwise 150 μL) was removed from each well. In some cases, the culture was continued 48 hours, for a total of 72 hours of culture, and the proliferative response measured.
IFN-γ concentration in culture supernatants was measured by a sandwich ELISA using two anti-IFN-γ monoclonal antibodies. Clone 2G1 was used for capture, and biotinylated antibody from clone B133.5 was used for detection (both from Endogen). Recombinant IFN-γ was used to construct a standard curve ranging from 1000 to 15 pg/mL.
Based on the increases in ATP level observed (i.e., a ratio of relative luminescence in wells with antigen to control wells without antigen of two or more), fifteen presumptive GA-specific T-cell lines in the original plate were moved to a 24-well plate at Day 26 and restimulated with 10 μg/mL Copaxone in the presence of autologous EBV-transformed B-LCL (5×10^5 per well, i.e., 2.5×10^5/mL). At Day 27 IL-2 was added. On Day 34, the fifteen presumptive lines were restimulated with 10 μg/mL GMA or 10 μg/mL COP in the presence of mitomycin-treated autologous B-LCL (4×10^4 per well; 2×10^5 per mL), or incubated with mitomycin-treated autologous B-LCL and no antigen. On Day 35 IL-2 was added to continued cultures. On Day 36 culture supernatant was collected from test cultures and IFN-γ production measured by ELISA (48 hours after restimulation). IFN-γ protein concentrations were determined using a TMB standard curve.

[1] = 222-1G8, 48 hours, T-cells + B-LCL >1000
[2] = 222-1H12, 48 hours, T-cells + B-LCL >1000
[3] = 222-2B8, 48 hours, T-cells + B-LCL 599
[4] = 222-2B11, 48 hours, T-cells + B-LCL 354
[5] = 222-2C3, 48 hours, T-cells + B-LCL 538
[6] = 222-2D8, 48 hours after restimulation, T-cells + B-LCL 270
[7] = 222-2E1, 48 hours, T-cells + B-LCL 457
[8] = 222-2F12, 48 hours, T-cells + B-LCL 295
[9] = 222-2G12, 48 hours, T-cells + B-LCL 515

Row | Substance | IFN-γ (ELISA), mean [1] [pg/mL] | IFN-γ (ELISA), mean [2] [pg/mL] | IFN-γ (ELISA), mean [3] [pg/mL] | IFN-γ (ELISA), mean [4] [pg/mL] | IFN-γ (ELISA), mean [5] [pg/mL] | IFN-γ production in response to GA | IFN-γ (ELISA), mean [6] [pg/mL] | IFN-γ (ELISA), mean [7] [pg/mL] | IFN-γ (ELISA), mean [8] [pg/mL] | IFN-γ (ELISA), mean [9] [pg/mL] | further results
1 | glatiramer acetate [COP] | >1000 | >1000 | >1000 | >1000 | >1000 | reacted | >1000 | >1000 | >1000 | >1000 | IFN-γ (ELISA), mean (222-1C5, 48 hours, T-cells + B-LCL 821, listed as Copaxone): 700 pg/mL; IFN-γ (ELISA), mean (222-1F8, 48 hours, T-cells + B-LCL 120, listed as Copaxone): 156 pg/mL; IFN-γ (ELISA), mean (222-2C1, 48 hours, T-cells + B-LCL 369, listed as Copaxone): 417 pg/mL; IFN-γ (ELISA), mean (222-2C5, 48 hours, T-cells + B-LCL 325, listed as Copaxone): 273 pg/mL; IFN-γ (ELISA), mean (222-2D2, 48 hours, T-cells + B-LCL 68, listed as Copaxone): 133 pg/mL; IFN-γ (ELISA), mean (222-2G4, 48 hours, T-cells + B-LCL 280, listed as Copaxone): 416 pg/mL
2 | glatiramer acetate [GMA] | >1000 | >1000 | >1000 | >1000 | >1000 | reacted | >1000 | >1000 | >1000 | >1000 | IFN-γ (ELISA), mean (222-1C5, 48 hours, T-cells + B-LCL 821): 776 pg/mL; IFN-γ (ELISA), mean (222-1F8, 48 hours, T-cells + B-LCL 120): 169 pg/mL; IFN-γ (ELISA), mean (222-2C1, 48 hours, T-cells + B-LCL 369): 392 pg/mL; IFN-γ (ELISA), mean (222-2C5, 48 hours, T-cells + B-LCL 325): 245 pg/mL; IFN-γ (ELISA), mean (222-2D2, 48 hours, T-cells + B-LCL 68): 131 pg/mL; IFN-γ (ELISA), mean (222-2G4, 48 hours, T-cells + B-LCL 280): 438 pg/mL
